Where two headings read alike, the source gives them in different places. Where only a bound is given, the exact number is not on record here.

In series [1] the test system is FKBP12-containing fusion proteins (3xFKBP-p65 / ZFHD1-3xFKBP transcription factors). Put plainly: Dimerizer-regulated gene expression (SEAP or hGH reporter) in transfected cells. To be noted: for activation of transcription with stably integrated constructs: cells in which transcription factor and reporter gene constructs are all stably integrated. Type of series: cell-based, human. As to the method: To screen clones it is convenient to transiently transfect cells in a 96-well format. Lipofectamine is used to introduce 50 ng total DNA/96-well under conditions recommended by the manufacturer (Gibco/BRL). If introducing both the transcription factor and target gene plasmids transiently, use 20 ng of each plasmid and 10 ng of carrier DNA (it may be necessary to optimize plasmid ratios and transfection conditions for each cell type). If only introducing one plasmid, bring to 50 ng with carrier DNA.
Following transfection, add medium +/−100 nM AP1510 dimerizer (or try a range of concentrations).
After overnight incubation (or longer), assay for target gene expression.
Secreted alkaline phosphatase activity can be easily measured from the supernatant of appropriately transfected cells using fluorescence-(see (10)), or chemiluminescence-(Tropix, Bedford, Mass.) based assays. Samples to be tested should first be incubated at 65° C. for 1 hour to inactivate endogenous alkaline phosphatase activity.
In gene regulation applications, expression becomes detectable at an AP1510 concentration of approximately 10 nM, and peaks at approximately 100 nM. When SEAP or hGH reporter systems are used, expression can be easily detected after an overnight incubation with dimerizer. In our experience, the efficacy is generally similar for other dimerization applications. A range of concentrations from 1 nM to 1 uM will typically provide a good dose-response profile in both cases.
Background: A reporter such as luciferase makes a cellular process visible.

Series [2] relates to transmembrane receptors that are activated by oligomerization. Put plainly: Dimerization of transmembrane receptors. Type of series: cell-based.
The nature of series [3]: Immunosuppressive activity of dimerizer.
The nature of series [4]: Solubility in aqueous culture medium. The class given is physicochemical. To be noted: serial dilution in (aqueous) culture medium. On the procedure:
Working concentrations of AP1510 can be obtained by adding compound directly from ethanol stocks, or by diluting serially in culture medium just before use. In the latter case it is recommended that the highest concentration not exceed 5 uM, to ensure complete solubility in the (aqueous) medium. In either case, the final concentration of ethanol in the medium added to mammalian cells should be kept below 0.5% (a 200-fold dilution of a 100% ethanol solution) to prevent detrimental effects of the solvent on the cells.

A further series concerns cells. Put plainly: Toxicity to cells. Type of series: cell-based.
The conditions of series [5]: linker positioned in the calcineurin binding domain of FK506; cited from earlier work.
For a further series, the target named is FKBP12 (Homo sapiens, UniProt P62942). To be noted: linker positioned in the calcineurin binding domain of FK506; cited from earlier work.
Sequence of FKBP12 (P62942 whole entry, the tested form may be a part): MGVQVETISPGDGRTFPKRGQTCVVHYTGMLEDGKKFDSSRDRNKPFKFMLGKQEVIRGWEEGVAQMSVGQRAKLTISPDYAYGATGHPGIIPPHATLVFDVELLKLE
The mark [6] stands for this setting: gene regulation applications, SEAP or hGH reporter, overnight incubation with dimerizer.

Turning to `CCC(C)(C)C(=O)C(=O)N1CCCC[C@H]1C(=O)O[C@H](CCc1ccc(OC)c(OC)c1)c1cccc(OCC(=O)NCCNC(=O)COc2cccc([C@@H](CCc3ccc(OC)c(OC)c3)OC(=O)[C@@H]3CCCCN3C(=O)C(=O)C(C)(C)CC)c2)c1` [AP1510], the “activation of transcription with stably integrated constructs” value in series [1] is given as “activates transcription efficiently”. Further, the “activation of transcription compared with FK1012” value in series [1] (gene regulation applications) was “at lower concentrations and to a higher level than FK1012”. Moreover, in series [1] (setting [6]), the “AP1510 concentration at which expression becomes detectable” value is reported as “approximately 10 nM” and the “AP1510 concentration at which expression peaks” value was “approximately 100 nM”. For the same compound, the “dimerization of transmembrane receptors” value in series [2] is listed as “successfully used to dimerize”. Moreover, the immunosuppressive activity result in series [3] is given as “no immunosuppressive activity”. The “highest concentration ensuring complete solubility in medium” value in series [4] was ≤ 5 µM. The toxicity to cells entry in the series on cells was “non-toxic to cells”.
In the case of FK1012, in series [5], the immunosuppressive activity result is reported as “abolishes immunosuppressive activity”. In series [1], the “activation of transcription with stably integrated constructs” value is reported as “poor”. Also, on FKBP12, the FKBP12 binding entry is on record as “unaffected”.

(Values after patent US20040265288A1, “New applications of gene therapy technology” (priority 1995, published 2004).)
